Laboratory results from US10046003B2, “Composition for treating neuropathy, a process and a method of treatment thereof” (INDUS BIOTECH PRIVATE LIMITED, priority 2013, dated 2018).

Tested on: PSNL rats
Assay: Motor nerve conduction velocity, comparison of Test composition vs alcoholic extract of fenugreek vs Pinitol stand-alone in PSNL rat model
Format: in vivo
Protocol: To compare efficacy of test Composition with Alcoholic Extract of Fenugreek (30 mg/kg p.o) and Pinitol stand-alone (30 mg/kg) in neuropathy, PSNL rat model is used. The sciatic nerve of the rats is exposed and they received injury by a process where a 4-0 silk suture are inserted into the nerve with ⅜ curve, with a reverse-cutting mini needle and is tightly ligated so that the dorsal ⅓-½ of the nerve thickness are trapped in the ligature. They received only vehicle (Distilled water). Male wistar rats weighing 200-220 g average are used for the study. 500 g of fenugreek seeds is extracted by using alcoholic extraction procedure. This extract is obtained in a dry form by using vacuum evaporation technique. […] When compared with sham operated rats there is significant decrease in nerve conduction velocity in PSNL control rats. […] The data was analysed by one way ANOVA followed by Bonferroni's Multiple Comparison Test, wherein: […]

CO[C@H]1[C@H](O)[C@@H](O)[C@@H](O)[C@H](O)[C@@H]1O [Pinitol stand-alone, 3-O-methyl-1,2,4 cis-3,5,6 transhexahydroxycyclohexanol]
nerve conduction velocity when compared with PSNL control rats (30 mg/kg p.o., day 28): marginal effect
Motor Nerve Conduction Velocity (m/s) (PSNL rats, 30 mg/kg p.o. chronic administration, Day 28 (after treatment)): 13.97 m/s
